Experimental data published in the supplement of paper PMC4862054.

How the values were obtained:
Conditions in all cases: incubation time: 72 h
CAL-148 [1] = experiment: normalised response (% of control), CellTiter-Glo; higher = more viable cells (100 = DMSO, 0 = benzethonium chloride kill control)
Summary of the method: (§1)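 For each plate, 0.1 % DMSO was set to 100 and a positive kill control to 0. Breast cancer cell lines (20 µl suspension) were seeded into 384-well plates already holding compound at 5 concentrations in 10-fold steps over a 10,000-fold range chosen per compound, and incubated for 72 h. CellTox Green fluorescence at 485/520 nm was read before CellTiter-Glo luminescence, which followed 10 min at room temperature. Each value is the normalised signal at one concentration.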

CAL-85-1 [2] = experiment: as above
Summary of the method: as §1

HCC1937 [3] = experiment: as above
Summary of the method: as §1

CAL-51 [4] = experiment: as above
Summary of the method: as §1

CAL-120 [5] = experiment: as above
Summary of the method: as §1

SK-BR-3 [6] = experiment: as above
Summary of the method: as §1

MDA-MB-436 [7] = experiment: as above
Summary of the method: as §1

HCC1143 [8] = experiment: as above
Summary of the method: as §1

MDA-MB-468 [9] = experiment: as above
Summary of the method: as §1

MDA-MB-453 [10] = experiment: as above
Summary of the method: as §1

MCF-10A = experiment: as above
Summary of the method: as §1

DU-4475 [11] = experiment: as above
Summary of the method: as §1

MFM-223 [12] = experiment: as above
Summary of the method: as §1

BT-474 [13] = experiment: as above
Summary of the method: as §1

MDA-MB-231 [14] = experiment: as above
Summary of the method: as §1

BT-549 [15] = experiment: as above
Summary of the method: as §1

HDQ-P1 [16] = experiment: as above
Summary of the method: as §1

Hs578T [17] = experiment: as above
Summary of the method: as §1

HCC1599 [18] = experiment: as above
Summary of the method: as §1

CAL-148 [19] = experiment: normalised viability (% of control), CellTiter-Blue; higher = more viable cells (100 = DMSO, 0 = benzethonium chloride kill control)
Description: (§2)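 DSRT, CellTiter-Blue viability, 72 h incubation. Signal is normalised to DMSO and benzethonium chloride controls. Value is the normalised response at dose 1.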

CAL-85-1 [20] = experiment: as above
Description: as §2

HCC1937 [21] = experiment: as above
Description: as §2

CAL-51 [22] = experiment: as above
Description: as §2

CAL-120 [23] = experiment: as above
Description: as §2

SK-BR-3 [24] = experiment: as above
Description: as §2

MDA-MB-436 [25] = experiment: as above
Description: as §2

HCC1143 [26] = experiment: as above
Description: as §2

MDA-MB-468 [27] = experiment: as above
Description: as §2

MDA-MB-453 [28] = experiment: as above
Description: as §2

DU-4475 [29] = experiment: as above
Description: as §2

MFM-223 [30] = experiment: as above
Description: as §2

BT-474 [31] = experiment: as above
Description: as §2

MDA-MB-231 [32] = experiment: as above
Description: as §2

BT-549 [33] = experiment: as above
Description: as §2

HDQ-P1 [34] = experiment: as above
Description: as §2

Hs578T [35] = experiment: as above
Description: as §2

HCC1599 [36] = experiment: as above
Description: as §2

Compound	normalised response (CAL-148 [1]) [%]	normalised response (CAL-85-1 [2]) [%]	normalised response (HCC1937 [3]) [%]	normalised response (CAL-51 [4]) [%]	normalised response (CAL-120 [5]) [%]	normalised response (SK-BR-3 [6]) [%]	normalised response (MDA-MB-436 [7]) [%]	normalised response (HCC1143 [8]) [%]	normalised response (MDA-MB-468 [9]) [%]	normalised response (MDA-MB-453 [10]) [%]	normalised response (MCF-10A) [%]	normalised response (DU-4475 [11]) [%]	normalised response (MFM-223 [12]) [%]	normalised response (BT-474 [13]) [%]	normalised response (MDA-MB-231 [14]) [%]	normalised response (BT-549 [15]) [%]	normalised response (HDQ-P1 [16]) [%]	normalised response (Hs578T [17]) [%]	normalised response (HCC1599 [18]) [%]	normalised viability (CAL-148 [19]) [%]	normalised viability (CAL-85-1 [20]) [%]	normalised viability (HCC1937 [21]) [%]	normalised viability (CAL-51 [22]) [%]	normalised viability (CAL-120 [23]) [%]	normalised viability (SK-BR-3 [24]) [%]	normalised viability (MDA-MB-436 [25]) [%]	normalised viability (HCC1143 [26]) [%]	normalised viability (MDA-MB-468 [27]) [%]	normalised viability (MDA-MB-453 [28]) [%]	normalised viability (DU-4475 [29]) [%]	normalised viability (MFM-223 [30]) [%]	normalised viability (BT-474 [31]) [%]	normalised viability (MDA-MB-231 [32]) [%]	normalised viability (BT-549 [33]) [%]	normalised viability (HDQ-P1 [34]) [%]	normalised viability (Hs578T [35]) [%]	normalised viability (HCC1599 [36]) [%]
Cn1cnc2c(F)c(Nc3ccc(Br)cc3F)c(C(=O)NOCCO)cc21 [MEK-162] (0.1 nM)	96.2	100	94.4	93.5	103	103	97.9	94.3	108	115	105	98.6	101	104	101	98.5	99.2	94.3	114	111	91.2	105	109	83.7	102	104	112	104	100	106	92.1	122	116	105	102	125	108
COC1=CC(c2cc3ccccc3[nH]2)=N/C1=C\c1[nH]c(C)cc1C [Obatoclax] (1 nM)	87.8	95	95.4	111	96.4	89	95.6	92.5	98.7	90.6	87	100	92.8	96.6	96.6	97.7	92.9	93.5	87.7	94.7	78.3	90.5	105	79.6	74.9	83.5	81	99	86.2	93.6	81	96.2	71.4	90.6	78.8	103	85.6
CN1CCN(c2ccc3nc(-c4c(N)c5c(F)cccc5[nH]c4=O)[nH]c3c2)CC1 [Dovitinib] (1 nM)	98.2	100	96.3	106	94.9	94.1	99.5	98.3	99.6	102	89.3	96.2	95.4	99.9	102	102	96	103	105	104	82	92.2	114	78.8	77.6	105	87.3	89.2	98.3	113	80.6	110	84.5	96.2	87.4	96.5	92.6
O=C(c1ccc(OCCN2CCCCC2)cc1)c1c(-c2ccc(O)cc2)sc2cc(O)ccc12 [Raloxifene] (1 nM)	108	101	102	114	97.9	110	105	109	101	105	109	102	99.6	99.7	101	104	107	108	97	98.2	103	88.3	96.8	90.7	90.8	91.6	86.1	105	85	110	91.2	71.6	87.1	95.2	101	99.8	101
CC(=O)O[C@H]1C(=O)[C@@]2(C)[C@H]([C@H](OC(=O)c3ccccc3)[C@]3(O)C[C@H](OC(=O)[C@H](O)[C@@H](NC(=O)c4ccccc4)c4ccccc4)C(C)=C1C3(C)C)[C@]1(OC(C)=O)CO[C@@H]1C[C@@H]2O [Paclitaxel] (0.1 nM)	89.6	99.2	90.5	103	89.7	88.4	98.7	93.6	95.7	89.9	87.9	93.8	89.9	95.5	96.6	100	96.4	100	100	106	98.2	84.3	93.8	90.6	90.2	95.8	106	105	97.5	115	93.9	82	73.8	116	82.6	103	102
COc1cccc2c1C(=O)c1c(O)c3c(c(O)c1C2=O)C[C@@](O)(C(C)=O)C[C@@H]3O[C@H]1C[C@H](N)[C@H](O)[C@H](C)O1 [Daunorubicin] (0.1 nM)	112	102	95.6	108	99	101	129	103	102	112	112	100	108	108	105	106	104	107	104	106	88.7	115	99.2	87.8	85.2	99.1	102	100	107	88.2	97.3	101	103	100	98.8	130	101
COC1=C2C[C@@H](C)C[C@H](OC)[C@H](O)[C@@H](C)/C=C(\C)[C@H](OC(N)=O)[C@@H](OC)/C=C\C=C(/C)C(=O)NC(=CC1=O)C2=O [Geldanamycin] (1 nM)	129	101	101	100	107	110	107	107	109	127	105	102	103	105	103	101	101	108	101	119	94.6	92.3	105	92.6	103	110	95.3	103	108	132	99.9	112	96	96.8	124	130	87.6
COc1ncc(-c2ccc3nccc(-c4ccnnc4)c3c2)cc1NS(=O)(=O)c1ccc(F)cc1F (0.1 nM)	97.9	98.1	98.2	112	98.4	108	97.7	106	100	125	120	99.8	111	101	104	101	99.8	103	92.1	99.6	90.2	100	93.7	81	86.9	113	89.1	101	94.3	108	91.4	115	92	108	103	112	83.8
